Measurements: the NIST ThermoML archive (doi:10.1021/je100581m)
Numbers after ± are expanded uncertainties.

Test: xn = mol fraction of the nth substance listed
Settings: Liquid, Vibrating tube method

C=CC(C)(O)CCC=C(C)C (stereo not given) [3,7-dimethyl-1,6-octadien-3-ol] + CCCO
mass density [kg/m3]
Settings	x2 = 0	x2 = 0.107	x2 = 0.206	x2 = 0.3066	x2 = 0.4064	x2 = 0.501	x2 = 0.6034	x2 = 0.7055	x2 = 0.7985	x2 = 0.898
283.15 K, 100 kPa	869.5 ± 1.1	867 ± 1.1	864.9 ± 1.1	862.1 ± 1	859 ± 1	855.4 ± 1	850.3 ± 1	843.7 ± 1	835.9 ± 1	825.2 ± 1
283.15 K, 5000 kPa	872.6 ± 1.1	870.2 ± 1.1	868.1 ± 1.1	865.4 ± 1.1	862.2 ± 1	858.6 ± 1	853.6 ± 1	847 ± 1	839.3 ± 1	828.8 ± 1
283.15 K, 10000 kPa	875.7 ± 1.2	873.1 ± 1.1	871 ± 1.1	868.3 ± 1.1	865.2 ± 1	861.6 ± 1	856.7 ± 1	850 ± 1	842.4 ± 1	832 ± 1
283.15 K, 15000 kPa	878.7 ± 1.2	876.2 ± 1.1	874.1 ± 1.1	871.4 ± 1.1	868.3 ± 1	864.8 ± 1	859.9 ± 1	853.3 ± 1	845.8 ± 1	835.5 ± 1
283.15 K, 20000 kPa	881.5 ± 1.2	879 ± 1.1	876.9 ± 1.1	874.4 ± 1.1	871.3 ± 1.1	867.7 ± 1	862.8 ± 1	856.3 ± 1	848.8 ± 1	838.6 ± 1
298.15 K, 100 kPa	857.3 ± 1.1	854.8 ± 1.1	852.7 ± 1.1	849.9 ± 1	846.8 ± 1	843.2 ± 1	838.2 ± 1	831.6 ± 1	824 ± 1	813.4 ± 1
298.15 K, 5000 kPa	860.6 ± 1.1	858.1 ± 1.1	856 ± 1.1	853.3 ± 1.1	850.2 ± 1	846.7 ± 1	841.7 ± 1	835.1 ± 1	827.7 ± 1	817.2 ± 1
298.15 K, 10000 kPa	863.9 ± 1.2	861.4 ± 1.1	859.4 ± 1.1	856.6 ± 1.1	853.6 ± 1	850.1 ± 1	845.2 ± 1	838.7 ± 1	831.2 ± 1	820.8 ± 1
298.15 K, 15000 kPa	867 ± 1.2	864.6 ± 1.1	862.6 ± 1.1	859.9 ± 1.1	856.8 ± 1.1	853.3 ± 1	848.5 ± 1	842 ± 1	834.6 ± 1	824.4 ± 1
298.15 K, 20000 kPa	870 ± 1.2	867.7 ± 1.1	865.6 ± 1.1	863 ± 1.1	859.9 ± 1.1	856.5 ± 1	851.6 ± 1	845.2 ± 1	837.9 ± 1	827.8 ± 1
313.15 K, 100 kPa	844.5 ± 1.1	842.1 ± 1.1	840.1 ± 1.1	837.3 ± 1	834.1 ± 1	830.5 ± 1	825.6 ± 1	819.1 ± 1	811.6 ± 1	801.2 ± 1
313.15 K, 5000 kPa	848.2 ± 1.1	845.8 ± 1.1	843.8 ± 1.1	841.1 ± 1.1	837.9 ± 1	834.4 ± 1	829.5 ± 1	823.1 ± 1	815.6 ± 1	805.3 ± 1
313.15 K, 10000 kPa	851.6 ± 1.1	849.3 ± 1.1	847.3 ± 1.1	844.6 ± 1.1	841.5 ± 1	838 ± 1	833.2 ± 1	826.8 ± 1	819.4 ± 1	809.2 ± 1
313.15 K, 15000 kPa	855 ± 1.2	852.8 ± 1.1	850.8 ± 1.1	848.1 ± 1.1	845.1 ± 1.1	841.5 ± 1	836.7 ± 1	830.4 ± 1	823.2 ± 1	813.1 ± 1
313.15 K, 20000 kPa	858.4 ± 1.2	856.1 ± 1.1	854.1 ± 1.1	851.5 ± 1.1	848.4 ± 1.1	844.9 ± 1.1	840.2 ± 1	833.9 ± 1	826.7 ± 1	816.7 ± 1
328.15 K, 100 kPa	831.7 ± 1.1	829.4 ± 1.1	827.3 ± 1.1	824.5 ± 1	821.3 ± 1	817.7 ± 1	812.8 ± 1	806.3 ± 1	799 ± 1	788.7 ± 1
328.15 K, 5000 kPa	835.6 ± 1.1	833.3 ± 1.1	831.2 ± 1.1	828.5 ± 1.1	825.3 ± 1	821.8 ± 1	816.9 ± 1	810.5 ± 1	803.3 ± 1	793.1 ± 1
328.15 K, 10000 kPa	839.5 ± 1.1	837.2 ± 1.1	835.2 ± 1.1	832.5 ± 1.1	829.3 ± 1	825.8 ± 1	821 ± 1	814.7 ± 1	807.5 ± 1	797.5 ± 1
328.15 K, 15000 kPa	843.1 ± 1.2	840.9 ± 1.1	838.8 ± 1.1	836.2 ± 1.1	833 ± 1.1	829.5 ± 1	824.8 ± 1	818.5 ± 1	811.4 ± 1	801.5 ± 1
328.15 K, 20000 kPa	846.7 ± 1.2	844.4 ± 1.1	842.4 ± 1.1	839.8 ± 1.1	836.7 ± 1.1	833.2 ± 1.1	828.5 ± 1	822.3 ± 1	815.2 ± 1	805.3 ± 1
